Data on 18 compounds can be found in patent publication US20250388582A1, “NOVEL BICYCLIC HETEROARYL COMPOUND AND USE THEREOF” (ILDONG PHARMACEUTICAL CO., LTD., priority 2022, published 2025).

A short description of data set [1]: Microsomal metabolic stability assay. The class given is in vitro ADME, human or CD1 male mouse. The following applies: Clint class; 1 μM compound, 0.5 mg/ml microsomes, NADPH, UDPGA, Alamethicin; species not given. As to the method: The microsomal metabolic stability assay was performed using pooled human or CD1 male mouse interspecies microsomes. Supplemental cofactors (NADPH, UDPGA) and microsomal membrane pore-forming factor (Alamethicin) were added to promote cytochrome P450 (CYP), UGT reactivity to the target compound. Test compounds (1 μM incubation concentration) and microsomes (0.5 mg/ml incubation concentration) were diluted in 0.1 M phosphate buffer, pH 7.4, and incubated (37° C.). The reaction was initiated by the addition of NADPH (1 mM), UDPGA (1 mM) and Alamethicin (25 μg/mg). The incubation times were 0, 5, 15, 30, and 45 minutes, and at each time point, the reaction was terminated by adding acetonitrile containing internal standard (IS)(1:3 ratio). The plate was then sealed, centrifuged (3000 rpm, 20 min, 4° C.), and the supernatant was analyzed by LC-MS/MS. Hepatic extraction ratio values were calculated from the measured in vitro clearance and Intrinsic clearance (Clint) values were calculated from the assay results, and the respective Clint values were categorized into Low, Medium, and High categories based on the reference document (ref. Prostaglandins & other lipid mediators 136 (2018): 90-95).

The target in another data set is T1, PIKFYVE (Homo sapiens, UniProt Q9Y2I7).
T1 construct: host or cells: HEK293 (ATCC, CRL-1573)
The data set can be described thus: NanoBRET TE Intracellular Kinase Assay, interaction of PIKFYVE and compounds in HEK293 cells. The class given is cell-based. The following applies: IC50 class from BRET; HEK293 cells expressing PIKFYVE-NanoLuc; 2 hours incubation. Put shortly:
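HEK293 cells transiently expressing a PIKFYVE-NanoLuc fusion were incubated 2 h at 37 °C, 5% CO2 with compound plus NanoBRET tracer. BRET was read after adding Nano-Glo substrate, giving intracellular target engagement by tracer displacement.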
A general note: BRET reads energy transfer from a luciferase to a nearby fluorophore.

For the next data set, the target named is T2, human GST-PIKFYVE (Homo sapiens, UniProt Q9Y2I7).
T2 construct: GST; purchased Carna biosciences 11-118
The data set can be described thus: ADP-Glo kinase assay, enzyme inhibition activity against human PIKFYVE (Carna biosciences). The class given is biochemical. The following applies: inhibitory activity at final compound concentration 10 nM; 1 hour at room temperature. A digest of the protocol: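 Human GST-PIKFYVE (glutathione Sepharose-purified) was reacted with substrate and ATP for 1 h at room temperature in 50 mM MOPS, 1 mM DTT, pH 7.2, with compound at 10 nM final. ADP formed was read by ADP-Glo luminescence; inhibition was calculated against no-enzyme (100%) and no-compound (0%) controls.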
For orientation: ADP-Glo first removes unused ATP, then detects ADP through luciferase.

For orientation: IC50 means the concentration that gives 50% inhibition.

T2 sequence (Q9Y2I7 whole entry): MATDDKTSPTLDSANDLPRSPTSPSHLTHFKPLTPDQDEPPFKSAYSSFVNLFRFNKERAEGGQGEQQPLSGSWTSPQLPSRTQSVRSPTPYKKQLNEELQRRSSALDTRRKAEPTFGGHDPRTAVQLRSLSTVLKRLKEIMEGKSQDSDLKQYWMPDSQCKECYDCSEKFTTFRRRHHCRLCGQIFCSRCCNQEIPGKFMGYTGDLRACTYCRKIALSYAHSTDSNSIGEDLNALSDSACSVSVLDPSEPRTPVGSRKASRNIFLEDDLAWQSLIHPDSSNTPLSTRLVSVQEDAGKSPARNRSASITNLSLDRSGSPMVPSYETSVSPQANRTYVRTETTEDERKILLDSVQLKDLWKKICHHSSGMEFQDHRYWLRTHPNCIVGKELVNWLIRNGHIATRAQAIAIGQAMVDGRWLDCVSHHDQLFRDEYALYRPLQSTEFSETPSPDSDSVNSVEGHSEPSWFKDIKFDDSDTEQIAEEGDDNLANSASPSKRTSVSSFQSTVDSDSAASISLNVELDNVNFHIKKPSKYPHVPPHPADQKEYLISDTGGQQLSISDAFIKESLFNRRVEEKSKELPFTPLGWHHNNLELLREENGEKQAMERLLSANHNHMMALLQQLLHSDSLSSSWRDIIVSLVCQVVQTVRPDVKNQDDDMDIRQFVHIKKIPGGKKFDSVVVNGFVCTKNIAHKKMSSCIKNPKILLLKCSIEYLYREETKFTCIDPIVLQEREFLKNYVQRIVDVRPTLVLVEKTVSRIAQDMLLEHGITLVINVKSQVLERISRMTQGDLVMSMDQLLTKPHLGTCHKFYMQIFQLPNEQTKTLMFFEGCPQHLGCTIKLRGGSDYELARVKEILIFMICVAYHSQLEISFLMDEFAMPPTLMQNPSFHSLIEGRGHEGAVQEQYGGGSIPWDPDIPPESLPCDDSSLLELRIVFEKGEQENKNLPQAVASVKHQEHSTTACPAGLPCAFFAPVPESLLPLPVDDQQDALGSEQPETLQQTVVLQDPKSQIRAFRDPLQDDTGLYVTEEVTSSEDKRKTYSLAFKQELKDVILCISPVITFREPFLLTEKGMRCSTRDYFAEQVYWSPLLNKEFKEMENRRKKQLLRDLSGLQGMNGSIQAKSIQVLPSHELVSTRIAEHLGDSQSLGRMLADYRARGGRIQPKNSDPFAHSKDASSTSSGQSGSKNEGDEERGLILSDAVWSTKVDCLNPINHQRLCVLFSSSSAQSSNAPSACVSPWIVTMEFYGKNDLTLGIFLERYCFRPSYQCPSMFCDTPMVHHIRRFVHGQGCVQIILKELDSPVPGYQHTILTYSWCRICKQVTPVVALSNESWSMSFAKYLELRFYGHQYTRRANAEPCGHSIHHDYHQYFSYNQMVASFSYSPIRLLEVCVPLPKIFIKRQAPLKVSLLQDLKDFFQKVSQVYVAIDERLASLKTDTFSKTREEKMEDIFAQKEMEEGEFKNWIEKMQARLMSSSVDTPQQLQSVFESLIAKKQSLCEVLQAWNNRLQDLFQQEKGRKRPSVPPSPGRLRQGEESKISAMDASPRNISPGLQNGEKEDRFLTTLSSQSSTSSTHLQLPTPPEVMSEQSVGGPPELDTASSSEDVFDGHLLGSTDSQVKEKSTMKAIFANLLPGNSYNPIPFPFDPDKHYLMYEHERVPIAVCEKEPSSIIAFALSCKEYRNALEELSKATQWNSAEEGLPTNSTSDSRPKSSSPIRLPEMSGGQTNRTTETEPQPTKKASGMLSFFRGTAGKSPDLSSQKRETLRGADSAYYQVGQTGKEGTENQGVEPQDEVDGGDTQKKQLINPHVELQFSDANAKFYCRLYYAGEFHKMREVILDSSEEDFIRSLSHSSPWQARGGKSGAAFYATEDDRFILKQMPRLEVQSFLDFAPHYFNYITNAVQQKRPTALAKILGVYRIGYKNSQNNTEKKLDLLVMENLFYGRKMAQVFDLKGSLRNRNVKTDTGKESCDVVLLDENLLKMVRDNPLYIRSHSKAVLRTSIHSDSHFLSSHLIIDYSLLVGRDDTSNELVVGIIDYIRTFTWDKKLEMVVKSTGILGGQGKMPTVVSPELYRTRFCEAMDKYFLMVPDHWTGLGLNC
T1 sequence (Q9Y2I7 whole entry): as above

For the compound `Cc1cccc(/C=N/Nc2nc(N3CCOCC3)nc3c2ncn3CC(=O)c2ccccc2C(F)(F)F)c1` [Example 43, (E)-2-(6-(2-(3-methylbenzylidene)hydrazinyl)-2-morpholino-9H-purin-9-yl)-1-(2-(trifluoromethyl)phenyl)ethan-1-one], in data set [1], the Microsomal metabolic stability entry was “Medium (Medium 8.8~48,)”. Moreover, the IC50 at PIKFYVE is at most 10 nM. Also, the “ADP-Glo kinase assay (%, 10 nM)” value on human GST-PIKFYVE is 80.86%.

As to `Cc1cccc(/C=N/Nc2nc(N3CCOCC3)nc3c2ncn3CC(=O)c2ccccc2Cl)c1` [Example 48, (E)-1-(2-chlorophenyl)-2-(6-(2-(3-methylbenzylidene)hydrazinyl)-2-morpholino-9H-purin-9-yl)ethan-1-one], the Microsomal metabolic stability result in data set [1] was “Low (Low <8.8,)”. The IC50 against PIKFYVE was at most 10 nM. In addition, at human GST-PIKFYVE, the “ADP-Glo kinase assay (%, 10 nM)” value turned out to be 90.25%.

`Cc1cccc(-c2ccn(-c3nc(N4CCOCC4)nc4c3ncn4CC(=O)c3ccccn3)n2)c1` [Example 64, 2-(2-morpholino-6-(3-(m-tolyl)-1H-pyrazol-1-yl)-9H-purin-9-yl)-1-(pyridin-2-yl)ethan-1-one]: in data set [1], the Microsomal metabolic stability result was “Medium (Medium 8.8~48,)”. The IC50 against PIKFYVE is at most 10 nM. Also, on human GST-PIKFYVE, the “ADP-Glo kinase assay (%, 10 nM)” value came out at 82.48%.

Turning to `Cc1cccc(/C=N/Nc2nc(N3CCOCC3)nc3c2ncn3-c2cccnc2)c1` [Example 96, (E)-4-(6-(2-(3-methylbenzylidene)hydrazinyl)-9-(pyridin-3-yl)-9H-purin-2-yl)morpholine], in data set [1], the Microsomal metabolic stability entry is listed as “Medium (Medium 8.8~48,)”. The same compound gave an IC50 on PIKFYVE of at most 10 nM. At human GST-PIKFYVE, the “ADP-Glo kinase assay (%, 10 nM)” value was found to be 85.95%.

Take `COc1cc(-n2cnc3c(N/N=C/c4cccc(C)c4)nc(N4CCOCC4)nc32)ccn1` [Example 101, (E)-4-(9-(2-methoxypyridin-4-yl)-6-(2-(3-methylbenzylidene)hydrazinyl)-9H-purin-2-yl)morpholine]: the Microsomal metabolic stability entry in data set [1] is given as “Low (Low <8.8,)”. The compound further registered an IC50 against PIKFYVE of at most 10 nM. The “ADP-Glo kinase assay (%, 10 nM)” value on human GST-PIKFYVE stood at 91.20%.

As for `Cc1cccc(/C=N/Nc2nc(N3CCOCC3)nc3c2ncn3-c2cccnc2C)c1` [Example 109, (E)-4-(6-(2-(3-methylbenzylidene)hydrazinyl)-9-(2-methylpyridin-3-yl)-9H-purin-2-yl)morpholine], in data set [1], the Microsomal metabolic stability entry is given as “Medium (Medium 8.8~48,)”. The same compound displayed an IC50 at PIKFYVE of 10 to 20 nM. Moreover, the “ADP-Glo kinase assay (%, 10 nM)” value at human GST-PIKFYVE was 79.21%.

In the case of `Cc1cccc(/C=N/Nc2nc(N3CCOCC3)nc3c2ncn3-c2sc(C)nc2C)c1` [Example 111, (E)-4-(9-(2,4-dimethylthiazol-5-yl)-6-(2-(3-methylbenzylidene)hydrazinyl)-9H-purin-2-yl)morpholine], the Microsomal metabolic stability result in data set [1] is on record as “Medium (Medium 8.8~48,)”. This compound gave an IC50 on PIKFYVE of at most 10 nM. Besides, on human GST-PIKFYVE, the “ADP-Glo kinase assay (%, 10 nM)” value was 89.77%.

Take `COc1ccc(-n2cnc3c(N/N=C/c4cccc(C)c4)nc(N4CCOCC4)nc32)cc1` [Example 120, (E)-4-(9-(4-methoxyphenyl)-6-(2-(3-methylbenzylidene)hydrazinyl)-9H-purin-2-yl)morpholine]: the Microsomal metabolic stability entry in data set [1] is on record as “medium”. In addition, on PIKFYVE, the 50% inhibitory concentration (IC50) was at most 10 nM. Also, at human GST-PIKFYVE, the “ADP-Glo kinase assay (%, 10 nM)” value is reported as 88.76%.

As to `COc1cccc(-n2cnc3c(N/N=C/c4cccc(C)c4)nc(N4CCOCC4)nc32)c1` [Example 121, (E)-4-(9-(3-methoxyphenyl)-6-(2-(3-methylbenzylidene)hydrazinyl)-9H-purin-2-yl)morpholine], in data set [1], the Microsomal metabolic stability entry is on record as “Medium (Medium 8.8~48,)”. The same compound came in with an IC50 against PIKFYVE of at most 10 nM. Also, at human GST-PIKFYVE, the “ADP-Glo kinase assay (%, 10 nM)” value amounted to 92.33%.

As for `Cc1cccc(/C=N/Nc2nc(N3CCOCC3)nc3c2ncn3-c2cccc(Cl)c2)c1` [Example 122, (E)-4-(9-(3-chlorophenyl)-6-(2-(3-methylbenzylidene)hydrazinyl)-9H-purin-2-yl)morpholine], in data set [1], the Microsomal metabolic stability entry is “Medium (Medium 8.8~48,)”. Moreover, the IC50 at PIKFYVE is at most 10 nM. For the same compound, on human GST-PIKFYVE, the “ADP-Glo kinase assay (%, 10 nM)” value was found to be 87.32%.

Regarding `Cc1cccc(/C=N/Nc2nc(N3CCOCC3)nc3c2ncn3-c2cccc(C#N)c2)c1` [Example 126, (E)-3-(6-(2-(3-methylbenzylidene)hydrazinyl)-2-morpholino-9H-purin-9-yl)benzonitrile], the Microsomal metabolic stability entry in data set [1] is “Low (Low <8.8,)”. At PIKFYVE, the IC50 is at most 10 nM. At human GST-PIKFYVE, the “ADP-Glo kinase assay (%, 10 nM)” value came out at 87.21%.

In the case of `Cc1cccc(/C=N/Nc2nc(N3CCOCC3)nc3c2ncn3-c2cccc(C)c2)c1` [Example 127, (E)-4-(6-(2-(3-methylbenzylidene)hydrazinyl)-9-(m-tolyl)-9H-purin-2-yl)morpholine], the Microsomal metabolic stability result in data set [1] is reported as “Low (Low <8.8,)”. For the same compound, at PIKFYVE, the IC50 is at most 10 nM. Further, the “ADP-Glo kinase assay (%, 10 nM)” value on human GST-PIKFYVE came out at 84.12%.

`Cc1cccc(/C=N/Nc2nc(N3CCOCC3)nc3c2ncn3-c2cccc(OC(F)(F)F)c2)c1` [Example 128, (E)-4-(6-(2-(3-methylbenzylidene)hydrazinyl)-9-(3-(trifluoromethoxy)phenyl)-9H-purin-2-yl)morpholine]: the Microsomal metabolic stability result in data set [1] is “Low (Low <8.8,)”. For the same compound, the IC50 against PIKFYVE was at most 10 nM. For the same compound, the “ADP-Glo kinase assay (%, 10 nM)” value at human GST-PIKFYVE turned out to be 65.10%.

As for `Cc1cccc(/C=N/Nc2nc(N3CCOCC3)nc3c2ncn3-c2cccc(F)c2)c1` [Example 129, (E)-4-(9-(3-fluorophenyl)-6-(2-(3-methylbenzylidene)hydrazinyl)-9H-purin-2-yl)morpholine], in data set [1], the Microsomal metabolic stability entry is listed as “Low (Low <8.8,)”. Moreover, the IC50 at PIKFYVE was at most 10 nM. Also, on human GST-PIKFYVE, the “ADP-Glo kinase assay (%, 10 nM)” value amounted to 89.94%.

For the compound `C(=N\Nc1nc(N2CCOCC2)nc2c1ncn2-c1ccccc1)/c1c[nH]c2ccccc12` [Example 132, (E)-4-(6-(2-((1H-indol-3-yl)methylene)hydrazinyl)-9-phenyl-9H-purin-2-yl)morpholine], the Microsomal metabolic stability result in data set [1] is listed as “Medium (Medium 8.8~48,)”. The IC50 against PIKFYVE is at most 10 nM. Further, the “ADP-Glo kinase assay (%, 10 nM)” value at human GST-PIKFYVE is recorded as 86.76%.

`Cc1cccc(-c2ccn(-c3nc(N4CCOCC4)nc4c3ncn4-c3ccccc3)n2)c1` [Example 136, 4-(9-phenyl-6-(3-(m-tolyl)-1H-pyrazol-1-yl)-9H-purin-2-yl)morpholine]: in data set [1], the Microsomal metabolic stability entry is reported as “Medium (Medium 8.8~48,)”. In addition, at PIKFYVE, the IC50 is at most 10 nM. Moreover, the “ADP-Glo kinase assay (%, 10 nM)” value at human GST-PIKFYVE amounted to 78.65%.

As to `Cc1cccc(/C=N/Nc2nc(N3CCOCC3)nc3c2ncn3-c2ccnc(C(F)(F)F)c2)c1` [Example 139, (E)-4-(6-(2-(3-methylbenzylidene)hydrazinyl)-9-(2-(trifluoromethyl)pyridin-4-yl)-9H-purin-2-yl)morpholine], in data set [1], the Microsomal metabolic stability entry was “low”. The IC50 against PIKFYVE is at most 10 nM. The “ADP-Glo kinase assay (%, 10 nM)” value at human GST-PIKFYVE amounted to 84.50%.

With `Cc1cccc(/C=N/Nc2nc(N3CCOCC3)nc3c2ncn3-c2ccnc(C)c2)c1` [Example 140, (E)-4-(6-(2-(3-methylbenzylidene)hydrazinyl)-9-(2-methylpyridin-4-yl)-9H-purin-2-yl)morpholine], the Microsomal metabolic stability entry in data set [1] is “Medium (Medium 8.8~48,)”. The IC50 against PIKFYVE was at most 10 nM. In addition, at human GST-PIKFYVE, the “ADP-Glo kinase assay (%, 10 nM)” value stood at 92.50%.
